According to paper PMC9489722, “Identification and development of a subtype-selective allosteric AKT inhibitor suitable for clinical development” (Scientific Reports, 2022):
Where two headings read alike, the source gives them in different places.

Assays:
[1] = test system: A549 cells; test: In vitro proliferation assay (CellTiter-Glo), A549; type: cell-based; conditions: Homo sapiens; A549 cell line
Description: MCF-7, T47D, NCI-H460, HCT116, LNCaP, A431, PC3, PANC-1, A549, HT29M, SKOV-3, Du145, HMEC-1, Hs888Lu, Hela, MDA-MB-231 and SW480 cells were obtained from American Type Culture Collection (ATCC). A2780, PNT2, U251MG, HFFF2 and Fr2 cells were obtained from Public Health England European Collection of Authenticated Cell Cultures (Phe ECACC). InMyoFib and NHLF cells were acquired from Lonza. Cells were then incubated with increasing concentration of inhibitor (1 nM to 100 µM) for 72 h at 37 °C. Cell viability was determined using the CellTiter-Glo Luminescent Cell Viability Assay (Promega). IC50 values were derived as previously stated.

[2] = test system: pAKT^S473 in A549 tumours; test: PK/PD study in A549 lung cancer xenograft model; type: in vivo, mouse; conditions: single oral dose 10, 30 or 100 mg/kg
Description: In order to understand the relationship between ALM301 plasma exposure and in vivo AKT target engagement over time, a PK/PD study was carried out in a A549 lung cancer xenograft model. […] ALM301 plasma concentrations and levels of pAKT^S473 in tumours were measured using western blotting and immunohistochemistry (Fig. 4A, B and Supplementary Fig. S4A–C). […] Tumour sections were collected following one dose of either vehicle or 30 mg/kg of ALM301 at noted time intervals (1 h, 2 h, 4 h, 8 h, 24 h). Tissue sections were subsequently stained with pAKT antibody (brown) staining and scored for pAKT staining using a scale of 1–4 (low to high) (Fig. 4B).
For pharmacokinetic/pharmacodynamic (PK/PD) studies in A549 lung cancer xenografts, 150 male BALB/c nude mice aged 6–8 weeks and weighing approximately 18–22 g were inoculated with 1 × 10^7 A549 tumour cells (ATCC) in 0.1 mL of PBS with Matrigel (1:1) subcutaneously into the right flank. Once the mean tumour size reached 150–250 mm^3, the mice were randomised into treatment groups (18 mice per group) using a randomised block design (first, experimental animals are divided into homogeneous blocks according to their initial tumour volume; secondly, within each block, randomisation of animals to treatment groups was conducted so that each animal had the same probability of being assigned to a given treatment, thereby reducing systematic bias). Group sizes were devised based on previous pilot studies using a minimal numbers approach of n = 3 tumours per time-point (6 time-points per dose level). […] Tumour size was measured twice weekly in two dimensions using a caliper, and the volume expressed in mm^3 using the formula: V = 0.5 (a × b^2), where a and b are the long and short diameters of the tumour, respectively.

[3] = Kinetic solubility assay; type: physicochemical; conditions: PBS buffer, pH 7.4, aqueous buffer, kinetic from dmso stock, PBS pH 7.4; read-out: Kinetic solubility pH7.4
Description: Compound solubility was tested in Dulbecco A PBS buffer at pH7.4 in Millipore MultiScreen Solubility Filter plates. Analysis was carried out on a Bioteck Synergy 4 plate reader (240–400 nm) and solubility quantified against a 5-point calibration curve.

[4] = test system: ∆AKT1; test: PH domain null AKT1 biochemical kinase assay (FP iMAP)
Description: Biochemical analysis was performed using kinases obtained from Millipore (AKT1, ∆AKT1, ∆AKT2, ∆AKT3) and Signal Chem (AKT2 and AKT3). The specific activity of AKT 1,2 and 3 was determined to be 114 nmol/min/mg, 44 nmol/min/mg and 200 nmol/min/mg respectively as per activity assay protocol. ALM301 was profiled using the Fluorescent Polarisation (FP) iMAP Screening Express kit (Molecular Devices) using the FAM-Crosstide substrate [5FAM-[…]-OH] (Molecular Devices) against the three isoforms of AKT and their PH domain null mutants. Compounds were dissolved in DMSO prior to screening at 14 point titration series in the range (50 µM–50 pM). Fluorescence polarisation was measured using a Biotek Synergy 4 Hybrid microplate reader. Percentage inhibition of kinase activity was calculated and IC50 values derived using non-linear regression on GraphPad Prism. Competition of ALM301 with ATP was determined using AKT1 under increasing ATP concentrations up to 1000 µM.

[5] = biological target: T1, AKT2 (Homo sapiens, UniProt P31751); test: SelectScreen kinase selectivity profiling, AKT2; type: biochemical; conditions: read-out: % inhibition @ 10 µM, AKT2; 10 µM fixed concentration
T1 construct: purchased Signal Chem
T1 sequence (P31751 whole entry): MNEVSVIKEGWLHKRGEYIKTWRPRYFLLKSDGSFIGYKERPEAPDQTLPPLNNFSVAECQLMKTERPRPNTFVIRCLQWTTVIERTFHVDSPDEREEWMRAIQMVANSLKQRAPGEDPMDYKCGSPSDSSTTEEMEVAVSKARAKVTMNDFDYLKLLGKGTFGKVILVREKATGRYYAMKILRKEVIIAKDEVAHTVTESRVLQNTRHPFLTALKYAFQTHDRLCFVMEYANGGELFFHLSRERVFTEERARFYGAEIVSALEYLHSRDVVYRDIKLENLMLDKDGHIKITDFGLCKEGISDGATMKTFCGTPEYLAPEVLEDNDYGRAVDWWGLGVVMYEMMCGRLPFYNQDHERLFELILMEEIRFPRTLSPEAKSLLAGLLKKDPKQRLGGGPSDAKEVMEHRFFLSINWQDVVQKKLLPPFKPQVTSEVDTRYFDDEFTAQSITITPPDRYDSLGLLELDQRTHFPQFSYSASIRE
Description: (§1) Off-target kinase activity was performed using the SelectScreen kinase profiling service against either mini 50 kinase or full 450 kinase panels using the Z’lyte and Adapta kinase activity platforms (performed by Thermofisher).

[6] = biological target: T2, AKT3 (Homo sapiens, UniProt Q9Y243); test: SelectScreen kinase selectivity profiling, AKT3; type: biochemical; conditions: read-out: % inhibition @ 10 µM, AKT3; 10 µM fixed concentration
T2 construct: purchased Signal Chem
T2 sequence (Q9Y243 whole entry): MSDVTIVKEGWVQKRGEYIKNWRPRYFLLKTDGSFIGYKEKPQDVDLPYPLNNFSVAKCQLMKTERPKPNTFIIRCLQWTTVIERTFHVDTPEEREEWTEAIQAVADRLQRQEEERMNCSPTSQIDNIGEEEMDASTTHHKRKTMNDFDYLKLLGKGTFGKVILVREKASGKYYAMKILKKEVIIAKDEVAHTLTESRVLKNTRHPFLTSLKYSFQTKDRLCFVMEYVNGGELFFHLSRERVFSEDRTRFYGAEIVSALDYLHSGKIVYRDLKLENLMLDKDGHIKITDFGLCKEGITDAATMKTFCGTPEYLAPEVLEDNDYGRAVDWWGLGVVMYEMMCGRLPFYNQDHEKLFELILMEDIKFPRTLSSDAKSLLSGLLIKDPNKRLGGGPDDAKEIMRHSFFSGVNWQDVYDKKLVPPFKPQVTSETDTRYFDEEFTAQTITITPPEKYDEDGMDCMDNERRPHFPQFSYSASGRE
Description: as §1

[7] = biological target: T3, AKT1 (Homo sapiens, UniProt P31749); test: SelectScreen kinase selectivity profiling, AKT1; type: biochemical; conditions: read-out: % inhibition @ 10 µM, AKT1; 10 µM fixed concentration
T3 construct: purchased Millipore
T3 sequence (P31749 whole entry): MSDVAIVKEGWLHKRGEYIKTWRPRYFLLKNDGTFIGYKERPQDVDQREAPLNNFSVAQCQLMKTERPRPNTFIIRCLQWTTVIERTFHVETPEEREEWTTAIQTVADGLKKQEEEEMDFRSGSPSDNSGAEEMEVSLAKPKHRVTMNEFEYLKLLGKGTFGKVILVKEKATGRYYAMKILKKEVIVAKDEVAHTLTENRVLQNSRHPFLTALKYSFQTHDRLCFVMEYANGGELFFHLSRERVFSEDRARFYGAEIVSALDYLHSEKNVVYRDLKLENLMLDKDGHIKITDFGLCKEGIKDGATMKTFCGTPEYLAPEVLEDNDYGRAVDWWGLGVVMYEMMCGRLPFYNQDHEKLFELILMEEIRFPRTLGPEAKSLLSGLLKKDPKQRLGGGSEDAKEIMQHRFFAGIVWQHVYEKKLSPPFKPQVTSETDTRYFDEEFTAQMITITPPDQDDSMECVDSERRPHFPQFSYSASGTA
Description: as §1

[8] = biological target: CYP3A4 (Homo sapiens, UniProt P08684); test: CYP3A4 inhibition; type: in vitro ADME; conditions: read-out: CYP IC50, 3A4
Sequence of CYP3A4 (P08684 whole entry): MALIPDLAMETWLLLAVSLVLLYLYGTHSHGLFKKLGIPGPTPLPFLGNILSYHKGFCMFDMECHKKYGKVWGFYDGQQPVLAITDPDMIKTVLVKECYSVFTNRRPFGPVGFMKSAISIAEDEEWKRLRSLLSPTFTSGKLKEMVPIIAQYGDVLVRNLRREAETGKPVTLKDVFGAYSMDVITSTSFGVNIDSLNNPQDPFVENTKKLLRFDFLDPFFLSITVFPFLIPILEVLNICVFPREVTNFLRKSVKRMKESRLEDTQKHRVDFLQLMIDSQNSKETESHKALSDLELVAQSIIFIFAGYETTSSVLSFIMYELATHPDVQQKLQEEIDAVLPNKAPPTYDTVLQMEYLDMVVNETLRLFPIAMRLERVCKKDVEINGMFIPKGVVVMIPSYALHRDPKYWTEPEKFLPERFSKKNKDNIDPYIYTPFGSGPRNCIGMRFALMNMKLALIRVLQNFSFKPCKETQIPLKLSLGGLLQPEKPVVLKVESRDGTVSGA

[9] = biological target: CYP 1A2 (Homo sapiens, UniProt P05177); test: CYP1A2 inhibition; type: in vitro ADME
Sequence of CYP 1A2 (P05177 whole entry): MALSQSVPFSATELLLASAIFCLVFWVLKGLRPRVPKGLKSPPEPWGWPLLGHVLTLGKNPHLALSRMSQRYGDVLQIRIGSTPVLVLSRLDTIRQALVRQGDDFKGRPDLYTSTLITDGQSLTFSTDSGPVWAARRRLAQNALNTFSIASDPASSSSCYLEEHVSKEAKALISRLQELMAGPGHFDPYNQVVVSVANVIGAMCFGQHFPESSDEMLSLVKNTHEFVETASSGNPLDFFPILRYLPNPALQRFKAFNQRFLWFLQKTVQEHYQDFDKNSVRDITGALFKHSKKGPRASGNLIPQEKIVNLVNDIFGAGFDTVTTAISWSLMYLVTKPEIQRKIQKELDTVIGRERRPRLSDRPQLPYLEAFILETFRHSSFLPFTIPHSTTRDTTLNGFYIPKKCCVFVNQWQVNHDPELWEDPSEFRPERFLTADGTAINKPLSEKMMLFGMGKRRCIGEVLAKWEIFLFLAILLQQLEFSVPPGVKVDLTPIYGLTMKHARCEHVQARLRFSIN

[10] = biological target: T2, AKT3; test: AKT3 biochemical kinase assay (FP iMAP)
Description: Biochemical analysis was performed using kinases obtained from Millipore (AKT1, ∆AKT1, ∆AKT2, ∆AKT3) and Signal Chem (AKT2 and AKT3). […] (Molecular Devices) against the three isoforms of AKT and their PH domain null mutants. Compounds were dissolved in DMSO prior to screening at 14 point titration series in the range (50 µM–50 pM). Fluorescence polarisation was measured using a Biotek Synergy 4 Hybrid microplate reader. Percentage inhibition of kinase activity was calculated and IC50 values derived using non-linear regression on GraphPad Prism. Competition of ALM301 with ATP was determined using AKT1 under increasing ATP concentrations up to 1000 µM.

CCN1C(=O)COc2nc(-c3ccc([C@]4(N)C[C@@H](O)C4)cc3)c(-c3ccccc3)cc21 [ALM301, 6-(4-((1S,3S)-1-amino-3-hydroxycyclobutyl)phenyl)-1-ethyl-7-phenyl-1H-pyrido[2,3-b][1,4]oxazin-2(3H)-one]
IC50 [1]: 43 µM | pAKT^S473 in tumours ([2]; all timepoints over 24 h, BALB/c mice bearing A549 xenografts): almost total abrogation | total plasma concentrations ([2]; mice bearing A549 xenografts): dose-dependent increases | solubility kinetic [3]: 192 µM | inhibition of truncated AKT1 lacking PH domain [4]: not inhibited | inhibition at 10 µM [5]: 89% | inhibition at 10 µM [6]: 72% | inhibition at 10 µM [7]: 95% | IC50 [8]: > 25 µM | IC50 [9]: > 25 µM | potency versus AKT3 reduced relative to AKT1 and AKT2 ([10]; in vitro kinase assays): over 20 fold | IC50 ([10]; read-out: AKT IC50, AKT3): 2.75 µM | IC50 ([10]; read-out: IC50 AKT3): > 0.5 µM
